In US8178506B2, “Oligomeric compounds and compositions for use in modulation of small non-coding RNAs” (Regulus Therapeutics Inc., priority 2003, dated 2012):
Several values for one entry are separate records, joined by “and”; a condition that tells them apart may be missing. Equal entries are not always repeated. In the oligonucleotide strings, read from the 5' end, every base follows the letter of its sugar. An asterisk marks phosphorothioate; unmarked linkages are phosphodiester. Other units and linkages are bracketed, terminal groups are in braces. A string of capitals states the bases alone. e = 2'-O-(2-methoxyethyl) (MOE); [5mC] = 5-methylcytosine

System: HeLa cells
Experiment: Cell cycle assay in HeLa cells
Format: cell-based, human
Conditions: for % cells aneuploid / % cells in cell cycle phase G1 / % cells in cell cycle phase G2/M / % cells in cell cycle phase S / % cells in cell cycle phase subG1 / % cells in cell cycle phase: G1 / % cells in cell cycle phase: G2/M / % cells in cell cycle phase: S / % cells in cell cycle phase: aneuploid / % cells in cell cycle phase: subG1 / % cells in cell cycle phase aneuploid: HeLa cells
[1] = 150 nM oligomeric compound, 24 hours, relative to untreated control (UTC = 100)
[2] = 150 nM oligomeric compound, 48 hours after treatment, relative to untreated control (UTC=100)
[3] = 150 nM, 48 hours, relative to untreated control
[4] = 25 nM, 48 hours, percentage of cells in phase, average of replicates
[5] = 50 nM, 48 hours, percentage of cells in phase, average of replicates
[6] = 100 nM, 48 hours, percentage of cells in phase, average of replicates
[7] = 150 nM, 48 hours, percentage of cells in phase, average of replicates

| Substance | % cells aneuploid [1] | % cells in cell cycle phase G1 [1] | % cells in cell cycle phase G2/M [1] | % cells in cell cycle phase S [1] | % cells in cell cycle phase subG1 [1] | % cells in cell cycle phase: G1 [2] | % cells in cell cycle phase: G2/M [2] | % cells in cell cycle phase: S [2] | % cells in cell cycle phase: aneuploid [2] | % cells in cell cycle phase: subG1 [2] | % cells in cell cycle phase G1 [3] | % cells in cell cycle phase G2/M [3] | % cells in cell cycle phase S [3] | % cells in cell cycle phase aneuploid [3] | % cells in cell cycle phase subG1 [3] | other results |
| --- | --- | --- | --- | --- | --- | --- | --- | --- | --- | --- | --- | --- | --- | --- | --- | --- |
| 340350 (antisense TGCTCAATAAATACCCGTTGAA; all 2'-MOE, all phosphorothioate, methylation of C not given here) [compound 340350] | 94% | 183% | 104% | 54% | 218% | 76% | 134% | 126% | 125% | 1144% | 101% | 112% | 94% | 177% | 132% | – |
| 327910 (antisense eT*eG*eA*eT*eA*eG*e[5mC]*e[5mC]*e[5mC]*eT*eG*eT*eA*e[5mC]*eA*eA*eT*eG*e[5mC]*eT*eG*e[5mC]*eT) [compound 327910] | 73% | 154% | 118% | 42% | 174% | 99% | 111% | 91% | 92% | 53% | – | – | – | – | – | – |
| ACTTTCGGTTATCTAGCTTTA [ISIS 327892] (chemistry not given here) [uniform 2′-MOE PS; targets mir-131-2/mir-9] | – | – | – | – | – | – | – | – | – | – | – | – | – | – | – | phase of the cell cycle in which cells arrest or delay (HeLa, 150 nM, 48 hours): G2/M- and S-phases |
| 327902 (antisense eG*eG*e[5mC]*eT*eG*eT*e[5mC]*eA*eA*eT*eT*e[5mC]*eA*eT*eA*eG*eG*eT*e[5mC]*eA*eG) [compound 327902] | 66% and 98% | 57% and 44% | 176% and 163% | 106% and 121% | 178% and 175% | 39% and 44% | 208% and 205% | 171% and 166% | 81% and 87% | – | 108% | 93% | 96% | 162% | 94% | % cells in cell cycle phase: G2/M (25 nM, 48 hours): 19%; % cells in cell cycle phase: G1 [4]: 57%; % cells in cell cycle phase: S [4]: 23%; % cells in cell cycle phase: aneuploid [4]: 13%; % cells in cell cycle phase: subG1 [4]: 1.6%; % cells in cell cycle phase: G2/M (50 nM, 48 hours): 20%; % cells in cell cycle phase: G1 [5]: 51%; % cells in cell cycle phase: S [5]: 30%; % cells in cell cycle phase: aneuploid [5]: 14%; % cells in cell cycle phase: subG1 [5]: 2.4%; % cells in cell cycle phase: G2/M (100 nM, 48 hours): 27%; % cells in cell cycle phase: G1 [6]: 43%; % cells in cell cycle phase: S [6]: 30%; % cells in cell cycle phase: aneuploid [6]: 11%; % cells in cell cycle phase: subG1 [6]: 3.1%; % cells in cell cycle phase: G2/M (150 nM, 48 hours): 28%; % cells in cell cycle phase: G1 [7]: 36%; % cells in cell cycle phase: S [7]: 36%; % cells in cell cycle phase: aneuploid [7]: 12%; % cells in cell cycle phase: subG1 [7]: 6.3% |
| 327877 (antisense e[5mC]*eG*e[5mC]*e[5mC]*eA*eA*eT*eA*eT*eT*eT*eA*e[5mC]*eG*eT*eG*e[5mC]*eT*eG*e[5mC]*eT*eA) [compound 327877] | 62% | 107% | 159% | 66% | 154% | 59% | 168% | 152% | 80% | 755% | – | – | – | – | – | – |
